From the NIST ThermoML archive (doi:10.1016/j.jct.2011.04.010)
± gives the expanded uncertainty stated by the source.

Columns and labels:
[1] = xn = mol fraction of the nth substance listed; settings: 101 kPa, Liquid; for speed of sound: 298.15 K, Ecolab MPFU speed of sound meter; for mass density: Vibrating tube method
[2] = molar heat capacity at constant pressure; xn = mol fraction of the nth substance listed; settings: 298.15 K, 101 kPa, Liquid, Flow calorimetry

COCCO [2-methoxyethan-1-ol] + CC#N
Settings	molar heat capacity at constant pressure, [2] [J/K/mol]	speed of sound, [1] [m/s]
x1 = 0.0504	97.12 ± 0.6	–
x1 = 0.09833	–	1281.3 ± 2
x1 = 0.1006	101.84 ± 0.63	–
x1 = 0.1504	106.53 ± 0.66	–
x1 = 0.1641	107.81 ± 0.67	–
x1 = 0.1936	–	1285.5 ± 2
x1 = 0.1955	110.77 ± 0.68	–
x1 = 0.2	111.19 ± 0.69	–
x1 = 0.2999	–	1292.4 ± 2
x1 = 0.3003	120.53 ± 0.74	–
x1 = 0.3989	–	1300.3 ± 2
x1 = 0.4043	129.87 ± 0.8	–
x1 = 0.45	133.82 ± 0.83	–
x1 = 0.5007	138.04 ± 0.85	–
x1 = 0.5042	–	1309.5 ± 2
x1 = 0.6021	146.04 ± 0.9	–
x1 = 0.605	–	1318.2 ± 2
x1 = 0.6287	148.03 ± 0.91	–
x1 = 0.6497	149.58 ± 0.92	–
x1 = 0.7347	–	1328.4 ± 2
x1 = 0.7453	156.4 ± 0.97	–
x1 = 0.7493	156.67 ± 0.97	–
x1 = 0.8295	–	1334.3 ± 2
x1 = 0.9064	167.3 ± 1	–
x1 = 0.9177	–	1338.1 ± 2
x1 = 0.9498	170.12 ± 1.1	–
x1 = 1	173.25 ± 1.1	1339.7 ± 2

mass density [kg/m3], [1]
Settings	308.15 K	318.15 K
x1 = 0.00977	–	758.593 ± 0.15
x1 = 0.00998	768.618 ± 0.14	–
x1 = 0.02023	–	761.593 ± 0.15
x1 = 0.02137	771.87 ± 0.14	–
x1 = 0.0304	–	764.483 ± 0.14
x1 = 0.03278	775.071 ± 0.14	–
x1 = 0.04029	–	767.262 ± 0.14
x1 = 0.04058	777.238 ± 0.14	–
x1 = 0.04893	–	769.671 ± 0.14
x1 = 0.0505	779.979 ± 0.14	–
x1 = 0.05932	–	772.54 ± 0.14
x1 = 0.06681	–	774.593 ± 0.14
x1 = 0.06827	784.813 ± 0.14	–
x1 = 0.07039	785.413 ± 0.14	–
x1 = 0.07541	786.728 ± 0.14	–
x1 = 0.07969	–	778.086 ± 0.14
x1 = 0.091	–	781.124 ± 0.14
x1 = 0.09332	791.503 ± 0.13	–
x1 = 0.1015	–	783.904 ± 0.14
x1 = 0.1019	793.744 ± 0.13	–
x1 = 0.1512	806.368 ± 0.13	–
x1 = 0.1516	–	796.793 ± 0.13
x1 = 0.195	817.055 ± 0.12	807.486 ± 0.13
x1 = 0.2495	829.827 ± 0.12	–
x1 = 0.2503	–	820.48 ± 0.12
x1 = 0.2981	840.655 ± 0.11	–
x1 = 0.304	–	832.469 ± 0.12
x1 = 0.4001	861.695 ± 0.1	–
x1 = 0.4012	–	852.641 ± 0.11
x1 = 0.5006	880.458 ± 0.095	–
x1 = 0.5007	–	871.365 ± 0.1
x1 = 0.6017	897.597 ± 0.088	–
x1 = 0.6038	–	888.921 ± 0.092
x1 = 0.7031	–	904.33 ± 0.086
x1 = 0.7041	913.484 ± 0.081	–
x1 = 0.8014	–	918.191 ± 0.08
x1 = 0.8024	927.171 ± 0.075	–
x1 = 0.9034	–	931.153 ± 0.074
x1 = 0.9066	940.325 ± 0.072	–
x1 = 0.9102	940.846 ± 0.07	–
x1 = 0.9133	–	932.346 ± 0.073
x1 = 0.9213	942.098 ± 0.07	–
x1 = 0.9235	–	933.569 ± 0.073
x1 = 0.9316	943.319 ± 0.069	–
x1 = 0.935	–	934.916 ± 0.072
x1 = 0.9417	944.49 ± 0.069	–
x1 = 0.9434	–	935.911 ± 0.072
x1 = 0.9524	–	936.96 ± 0.071
x1 = 0.9528	945.766 ± 0.068	–
x1 = 0.9632	946.944 ± 0.068	–
x1 = 0.9635	–	938.217 ± 0.071
x1 = 0.9702	947.731 ± 0.068	–
x1 = 0.9723	–	939.208 ± 0.07
x1 = 0.9814	948.974 ± 0.067	940.219 ± 0.07
x1 = 0.9929	–	941.484 ± 0.069
x1 = 0.9931	950.261 ± 0.067	–
x1 = 1	951.01 ± 0.063	942.253 ± 0.065
